Laboratory results reported in a melting point compilation (Tetko et al.; mined from patent text by program, amines drawn as free bases though some values may be those of a salt).

| SMILES | melting point [°C] |
| --- | --- |
| CN(C)C=CC(=O)c1cccc(NC(=O)C2CCC2)c1 | 155 to 157 |
| Cc1ccc(S(=O)(=O)N2CCC3(CCc4ccccc43)CC2)cc1 | 140 to 142 |
| O=C(c1ccc(F)cc1)C1CCN(CCn2c(=O)[nH]c3ccsc3c2=O)CC1 | 141 to 143 |
| CCCCc1c(C(=O)OCC)cc(O)c2ccccc12 | 117 to 120 |
| O=C(C[C@@H](CCCC1CCCCC1)c1nc(CNC2CCOCC2)no1)NO | 109 to 110 |
| CC(=O)NCCN1CCc2ccc3c(c21)CCCO3 | 91 to 93 |
| CC1=C(C(=O)O)N2C(=O)C(NC(=O)Cc3ccc(CCl)cc3)C2SC1 (stereo not given) | 145 to 146 |
| O=C(Cc1ccccc1Cl)Nc1ccc(C(=O)N2CCCCc3sccc32)cc1 | 178 to 180 |
| O=C(C1CCCCC1)N1CC(=S)N2CCCc3ccccc3C2C1 (stereo not given) | 150 to 151 |
| CC1CCC(Oc2cc(F)cc(C(=O)Nc3ccc(OCCN4CCOCC4)c4ccccc34)c2)CC1 (stereo not given) | 98 to 100 |
| CCOC(=O)c1cc2c(Cl)cccc2n1CC#N | 143 to 144 |
| COCOc1ccc(CCC(=O)c2c(OC)cc(OC)c(CCC(C)C)c2O)cc1OC | 69 to 70 |
| COc1c(C)cc2c(c1C)Cc1c-2[nH]c2ccccc12 | 177 |
| O=C(C1CC1)N1CCCCc2cc(C(O)(C(F)(F)F)C(F)(F)F)ccc21 | 165 to 167 |
| O=C(O)Cc1nc(-c2c(Cl)cccc2Cl)no1 | 124 to 126 |
| O=C(OCc1ccccc1)c1ccc2cc(-c3ccc(CCCO)c(C45CC6CC(CC(C6)C4)C5)c3)ccc2c1 | 176 |
| Cc1ccc(-n2nc(C(F)F)cc2-c2ccc(S(C)(=O)=O)cc2)cc1F | 161 to 162 |
| CCOC(=O)NCC(=O)c1ccc(OCC(=O)OC)cc1 | 128 to 129 |
| NC(=O)C1CCN(c2c(Br)cncc2Br)CC1 | 158 to 160 |
| O=C(Nc1ccc2[nH]ccc2c1)c1ccco1 | 181 to 182 |

| SMILES | melting point [°C] |
| --- | --- |
| Fc1ccc(Nc2ncnc3cnc(NCc4ccccn4)nc23)cc1Cl | 220 to 222 |
| O=c1cc(Nc2cc([N+](=O)[O-])ccc2Cl)[nH]n1-c1c(Cl)cc(Cl)cc1Cl | 274 to 278 |
| O=c1c2c([nH]n1-c1cc(OCC3CCCSC3)c(Cl)cc1F)CCCC2 (stereo not given) | 96 to 100 |
| COc1cccc2sc(C(=O)Nc3nnn[nH]3)c(OC(C)C)c12 | 233 |
| CCc1cc2c(ccc(=O)n2Cc2ccc(NC(=O)c3ccccc3C(=O)O)cc2)c(CC)n1 | 237 to 240 |
| c1ccc2c(c1)C[C@H]1CSC(=Nc3nccs3)N1C2 | 158 |
| CCn1ncc(C(=O)c2ccc(S(C)(=O)=O)c(-c3ccccc3C)c2C)c1O | 179 to 180 |
| Nc1ncnc2c1ncn2Cc1oc2ccccc2c(=O)c1-c1ccccc1 | 173 to 175 |
| CCCN(CCC)CC1CCCN(CCNC(=O)N2c3ccccc3C(=O)Nc3cccnc32)C1 (stereo not given) | 153 to 155 |
| CC1=N/C(=C\c2cccnc2)C(=O)O1 | 173 |
| CC(C)(C)OC(=O)c1ncn2c1[C@@H]1CCCN1C(=O)c1c(Cl)cccc1-2 | 216 to 217 |
| CCCN(CCC)Cc1csc(-c2ncn3c2CN(C)C(=O)c2ccccc2-3)n1 | 111 to 112 |
| CN(C)C=Nc1ncc(C#Cc2ccc(Cl)cc2)c(Cl)n1 | 195 to 197 |
| CCCCCCCCCCCCCCCC(=O)NC#N | 62 to 65 |
| CC1(C)Cc2c(c(N3CCCC3)nc3sc4c(NCCCN5CCCC5=O)ncnc4c23)CO1 | 217 |
| CN1N=C(c2ccc3c(c2)N(S(C)(=O)=O)CCO3)CCC1=O | 162 to 165 |
| C=CC(=O)OCCN(CCOC(=O)C=C)c1ccc(N=Nc2ccc([N+](=O)[O-])cc2)cc1 | 91 to 93 |
| O=C(NCCc1ccccc1)C1=C(C(=O)Nc2cc(OC3CCCC3)c(Cl)cc2F)CCCC1 | 165 to 166 |
| CCCCCCCCOc1ccc(-c2nc(-c3ccccc3)c(-c3ccccc3)[nH]2)cc1 | 178 |
| CCCC(CCC)N1Cc2c(C(=O)OC)cc(NS(C)(=O)=O)cc2C1=O | 173 |
